From publication PMC10619143, “Development of a covalent cereblon-based PROTAC employing a fluorosulfate warhead” (RSC Chemical Biology, 2023) come the findings set out here.

For this experiment, the target named is T1, cereblon (CRBN) (Homo sapiens, UniProt Q96SW2).
T1 construct: CRBN-DDB1ΔB complex; with DDB1ΔB
In words: intact protein MS covalent labelling and MS/MS site mapping (also cellular NanoBRET IC50 […] at […] h). It counts as binding.

T1 sequence (Q16531 2-1140): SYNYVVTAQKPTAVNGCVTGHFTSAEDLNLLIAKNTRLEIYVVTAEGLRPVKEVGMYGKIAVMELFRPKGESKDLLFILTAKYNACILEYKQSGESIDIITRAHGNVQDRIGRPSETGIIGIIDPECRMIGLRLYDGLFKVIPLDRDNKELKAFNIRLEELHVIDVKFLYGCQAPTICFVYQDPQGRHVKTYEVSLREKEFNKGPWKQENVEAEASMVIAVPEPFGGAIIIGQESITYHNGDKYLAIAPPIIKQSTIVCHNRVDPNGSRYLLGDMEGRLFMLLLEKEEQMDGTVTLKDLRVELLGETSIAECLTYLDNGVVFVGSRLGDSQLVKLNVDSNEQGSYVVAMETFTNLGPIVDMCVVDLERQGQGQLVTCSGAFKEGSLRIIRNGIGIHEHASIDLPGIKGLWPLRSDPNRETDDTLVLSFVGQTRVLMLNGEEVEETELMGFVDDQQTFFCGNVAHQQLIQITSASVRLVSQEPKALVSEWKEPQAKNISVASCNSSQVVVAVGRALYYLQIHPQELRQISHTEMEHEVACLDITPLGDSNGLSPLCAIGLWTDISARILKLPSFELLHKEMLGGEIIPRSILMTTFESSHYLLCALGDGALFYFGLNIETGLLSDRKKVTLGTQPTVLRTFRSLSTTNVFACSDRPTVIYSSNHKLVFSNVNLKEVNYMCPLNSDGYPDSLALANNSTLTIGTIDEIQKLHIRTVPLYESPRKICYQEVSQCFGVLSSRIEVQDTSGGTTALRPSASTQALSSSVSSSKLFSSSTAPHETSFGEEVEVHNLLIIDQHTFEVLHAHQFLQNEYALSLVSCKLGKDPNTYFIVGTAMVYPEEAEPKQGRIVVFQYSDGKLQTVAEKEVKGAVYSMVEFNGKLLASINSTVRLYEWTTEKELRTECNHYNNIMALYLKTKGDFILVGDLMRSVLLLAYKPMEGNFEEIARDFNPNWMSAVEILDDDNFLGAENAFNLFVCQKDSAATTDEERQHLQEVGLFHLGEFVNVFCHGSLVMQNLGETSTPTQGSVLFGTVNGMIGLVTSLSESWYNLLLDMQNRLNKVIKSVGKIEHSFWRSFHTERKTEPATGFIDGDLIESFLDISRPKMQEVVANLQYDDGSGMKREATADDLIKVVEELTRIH
T1 sequence (Q96SW2 whole entry): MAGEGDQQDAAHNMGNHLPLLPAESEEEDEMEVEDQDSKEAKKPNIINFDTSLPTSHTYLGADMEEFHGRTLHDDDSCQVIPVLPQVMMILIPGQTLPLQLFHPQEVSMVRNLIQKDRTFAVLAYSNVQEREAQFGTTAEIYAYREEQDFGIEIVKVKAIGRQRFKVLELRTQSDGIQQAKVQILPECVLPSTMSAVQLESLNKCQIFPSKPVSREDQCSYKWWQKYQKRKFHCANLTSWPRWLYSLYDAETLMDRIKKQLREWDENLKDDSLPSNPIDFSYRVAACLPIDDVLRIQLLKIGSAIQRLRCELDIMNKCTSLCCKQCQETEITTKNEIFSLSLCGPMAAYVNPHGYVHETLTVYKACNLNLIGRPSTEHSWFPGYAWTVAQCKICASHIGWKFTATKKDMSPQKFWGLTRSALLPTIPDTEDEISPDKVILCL

Regarding `Cc1sc2c(c1C)C(c1ccc(Cl)cc1)=N[C@@H](CC(=O)Nc1ccc(OCCOCCOCCOCCNc3cc(OS(=O)(=O)F)cc4c3C(=O)N(C3CCC(=O)NC3=O)C4=O)cc1)c1nnc(C)n1-2` (stereo partly shown) [FS-ARV-825], the “% labelled (10 μM, 24 h)” value is on record as ~ 50 % labelled (10 μM, 24 h).
